Assay results reported in patent US20080045537A1, “Chemical Compounds” (priority 2004, published 2008).

Test system: HIV-1 IIIB (T-tropic, CXCR4 utilizing)
Experiment: HOS HIV-1 infectivity assay
Type: cell-based
Details: Human immunodeficiency virus 1, IIIB; as determined by the infectivity assay; strain not stated in Table 2; read-out: Activity Level
Experimental: Compounds were profiled against two HIV-1 viruses, the M-tropic (CCR5 utilizing) Ba-L strain and the T-tropic (CXCR4 utilizing) IIIB strain. Both viruses were propagated in human peripheral blood lymphocytes. Compounds were tested for there ability to block infection of the HOS cell line (expressing hCXCR4/hCCR5/hCD4/pHIV-LTR-luciferase) by either HIV-1 Ba-L or HIV-1 IIIB. Compound cytotoxicity was also examined in the absence of virus addition.
HOS cells (expressing hCXCR4/hCCR5/hCD4/pHIV-LTR-luciferase) were harvested and diluted in Dulbeccos modified Eagles media supplemented with 2% FCS and non-essential amino acid to a concentration of 60,000 cells/ml. The cells were plated into 96-well plates (100 ul per well) and the plates were placed in a tissue culture incubator (37° C.; 5% CO2/95% air) for a period of 24 h.
Subsequently, 50 ul of the desired drug solution (4 times the final concentration) was added to each well and the plates were returned to the tissue culture incubator (37° C.; 5% CO2/95% air) for 1 h. Following this incubation 50 ul of diluted virus was added to each well (approximately 2 million RLU per well of virus). The plates were returned to the tissue culture incubator (37° C.; 5% CO2/95% air) and were incubated for a further 96 h.
Following this incubation the endpoint for the virally infected cultures was quantified following addition of Steady-Glo Luciferase assay system reagent (Promega, Madison, Wis.). Cell viability or non-infected cultures was measured using a CellTiter-Glo luminescent cell viability assay system (Promega, Madison, Wis.). All luminescent readouts are performed on a Topcount luminescence detector (Packard, Meridien, Conn.).

SMILES	IC50
CN(Cc1nc2c(C(=O)NCCc3c[nH]c4ccccc34)cccc2[nH]1)C1CCCc2cccnc21 (stereo not drawn) [Example 81, N-[2-(1H-Indol-3-yl)ethyl]-2-{[methyl(5,6,7,8-tetrahydro-8-quinolinyl)amino]methyl}-1H-benzimidazole-4-carboxamide]	500 to 10000 nM
CN(Cc1nc2cc(C(=O)N3CCNCC3)ccc2[nH]1)C1CCCc2cccnc21 (stereo not drawn) [Example 57, N-Methyl-N-{[5-(1-piperazinylcarbonyl)-1H-benzimidazol-2-yl]methyl}-5,6,7,8-tetrahydro-8-quinolinamine]	500 to 10000 nM
CN(Cc1nc2cc(C(=O)NCc3ccncc3)ccc2[nH]1)C1CCCc2cccnc21 (stereo not drawn) [Example 40, 2-{[Methyl(5,6,7,8-tetrahydro-8-quinolinyl)amino]methyl}-N-(4-pyridinylmethyl)-1H-benzimidazole-5-carboxamide]	500 to 10000 nM
CC(C)N1CCN(C(=O)c2cccc3[nH]c(CN(C)C4CCCc5cccnc54)nc23)CC1 (stereo not drawn) [Example 87, N-Methyl-N-[(4-{[4-(1-methylethyl)-1-piperazinyl]carbonyl}-1H-benzimidazol-2-yl)methyl]-5,6,7,8-tetrahydro-8-quinolinamine]	100 to 500 nM
CN(Cc1nc2c(-n3ccnc3)cccc2[nH]1)C1CCCc2cccnc21 (stereo not drawn) [Example 101, N-{[4-(1H-Imidazol-1-yl)-1H-benzimidazol-2-yl]methyl}-N-methyl-5,6,7,8-tetrahydro-8-quinolinamine]	100 to 500 nM
CN1CCC(NC(=O)c2cccc3[nH]c(CN(C)C4CCCc5cccnc54)nc23)CC1 (stereo not drawn) [Example 88, N-(1-methyl-4-piperidinyl)-2-{[methyl(5,6,7,8-tetrahydro-8-quinolinyl)amino]methyl}-1H-benzimidazole-4-carboxamide]	100 to 500 nM
CN(Cc1nc2c(NC(=O)c3ccncc3)cccc2[nH]1)C1CCCc2cccnc21 (stereo not drawn) [Example 103, N-(2-{[Methyl(5,6,7,8-tetrahydro-8-quinolinyl)amino]methyl}-1H-benzimidazol-4-yl)-4-pyridinecarboxamide]	500 to 10000 nM
CN(Cc1nc2c(NC(=O)[C@@H]3CCCN3C)cccc2[nH]1)C1CCCc2cccnc21 (stereo partly drawn) [Example 104, 1-Methyl-N-(2-{[methyl(5,6,7,8-tetrahydro-8-quinolinyl)amino]methyl}-1H-benzimidazol-4-yl)-L-prolinamide]	100 to 500 nM
CN1CCN(c2cccc3nc(CNC4CCc5cccnc54)[nH]c23)CC1 (stereo not drawn) [Example 182, N-{[4-(4-Methyl-1-piperazinyl)-1H-benzimidazol-2-yl]methyl}-6,7-dihydro-5H-cyclopenta[b]pyridin-7-amine]	100 to 500 nM
CN(Cc1nc2cc(C(=O)N3CCN(Cc4ccccc4)CC3)ccc2[nH]1)C1CCCc2cccnc21 (stereo not drawn) [Example 59, N-Methyl-N-[(5-{[4-(phenylmethyl)-1-piperazinyl]carbonyl}-1H-benzimidazol-2-yl)methyl]-5,6,7,8-tetrahydro-8-quinolinamine]	500 to 10000 nM
CCn1c(CN(Cc2ccccc2)[C@H]2CCCc3cccnc32)nc2cccc(N3CCN(C)CC3)c21 [Example 165, (8S)—N-{[1-Ethyl-7-(4-methyl-1-piperazinyl)-1H-benzimidazol-2-yl]methyl}-N-(Phenylmethyl)-5,6,7,8-tetrahydro-8-quinolinamine]	< 100 nM
CN(Cc1nc2c(C(=O)N3CCC(N)C3)cccc2[nH]1)C1CCCc2cccnc21 (stereo not drawn) [Example 83, N-({4-[(3-amino-1-pyrrolidinyl)carbonyl]-1H-benzimidazol-2-yl}methyl)-N-methyl-5,6,7,8-tetrahydro-8-quinolinamine]	< 100 nM
CN(Cc1nc2c(C(=O)NCCc3cncn3C)cccc2[nH]1)C1CCCc2cccnc21 (stereo not drawn) [Example 67, N-[2-(1-methyl-1H-imidazol-5-yl)ethyl]-2-{[methyl(5,6,7,8-tetrahydro-8-quinolinyl)amino]methyl}-1H-benzimidazole-4-carboxamide]	100 to 500 nM
CCN(CC)CCN1CCN(C(=O)c2ccc3[nH]c(CN(CC)C4CCCc5cccnc54)nc3c2)CC1 (stereo not drawn) [Example 46, N-{[5-({4-[2-(Diethylamino)ethyl]-1-piperazinyl}carbonyl)-1H-benzimidazol-2-yl]methyl}-N-ethyl-5,6,7,8-tetrahydro-8-quinolinamine]	500 to 10000 nM
CN1C[C@H]2C[C@H](C1)CN(c1cccc3nc(CN(C)[C@H]4CCCc5cccnc54)[nH]c13)C2 [Example 144, (8S)—N-methyl-N-({4-[(1R,5R)-7-methyl-3,7-diazabicyclo[3.3.1]non-3-yl]-1H-benzimidazol-2-yl}methyl)-5,6,7,8-tetrahydro-8-quinolinamine]	< 100 nM
CN(Cc1nc2c(NC(=O)CCN3CCCCC3)cccc2[nH]1)C1CCCc2cccnc21 (stereo not drawn) [Example 100, N-(2-{[methyl(5,6,7,8-tetrahydro-8-quinolinyl)amino]methyl}-1H-benzimidazol-4-yl)-3-(1-piperidinyl)propanamide]	100 to 500 nM
CN1CCN(c2ccc(Cl)c3nc(CN(C)C4CCCc5cccnc54)[nH]c23)CC1 (stereo not drawn) [Example 171, N-{[4-Chloro-7-(4-methyl-1-piperazinyl)-1H-benzimidazol-2-yl]methyl}-N-methyl-5,6,7,8-tetrahydro-8-quinolinamine]	< 100 nM

Results, then the compound that gave them:

IC50	SMILES
< 100 nM	C[C@H](c1nc2c(N3CCN(C)CC3)cccc2[nH]1)N(C)C1CCCc2cccnc21 (stereo partly drawn) [Example 172, N-Methyl-N-{(1R)-1-[4-(4-methyl-1-piperazinyl)-1H-benzimidazol-2-yl]ethyl}-5,6,7,8-tetrahydro-8-quinolinamine]
< 100 nM	CN1CCN(c2cccc3nc(CN(CCCO)[C@H]4CCCc5cccnc54)n(C)c23)CC1 [Example 181, 3-{{[1-Methyl-7-(4-methyl-1-piperazinyl)-1H-benzimidazol-2-yl]methyl}[(8S)-5,6,7,8-tetrahydro-8-quinolinyl]amino}-1-propanol]
< 100 nM	CN(Cc1nc2c(N3CCN(C(=O)CN)CC3)cccc2[nH]1)C1CCCc2cccnc21 (stereo not drawn) [Example 116, N-({4-[4-(Aminoacetyl)-1-piperazinyl]-1H-benzimidazol-2-yl}methyl)-N-methyl-5,6,7,8-tetrahydro-8-quinolinamine]
< 100 nM	CCCN(Cc1nc2cccc(N3CCN(C)CC3)c2n1C)C1CCCc2cccnc21 (stereo not drawn) [Example 155, N-{[1-Methyl-7-(4-methyl-1-piperazinyl)-1H-benzimidazol-2-yl]methyl}-N-propyl-5,6,7,8-tetrahydro-8-quinolinamine]
< 100 nM	CN(Cc1nc2cc(C(N)=O)ccc2[nH]1)C1CCCc2cccnc21 (stereo not drawn) [Example 37, 2-{[Methyl(5,6,7,8-tetrahydroquinolin-8-yl)amino]methyl}-1H-benzimidazole-5-carboxamide]
< 100 nM	CCN(Cc1nc2cccc(N3CCN(C)CC3)c2[nH]1)[C@H]1CCCc2cccnc21 [Example 135, (8S)—N-Ethyl-N-{[4-(4-methyl-1-piperazinyl)-1H-benzimidazol-2-yl]methyl}-5,6,7,8-tetrahydro-8-quinolinamine]
< 100 nM	CCCN(Cc1nc2cccc(N3CCN(C)CC3)c2n1C)[C@H]1CCCc2cccnc21 [Example 168, (8S)—N-{[1-Methyl-7-(4-methyl-1-piperazinyl)-1H-benzimidazol-2-yl]methyl}-N-propyl-5,6,7,8-tetrahydro-8-quinolinamine]
< 100 nM	CN(Cc1nc2c(C(=O)NCc3nc4ccccc4[nH]3)cccc2[nH]1)C1CCCc2cccnc21 (stereo not drawn) [Example 75, N-(1H-Benzimidazol-2-ylmethyl)-2-{[methyl(5,6,7,8-tetrahydro-8-quinolinyl)amino]methyl}-1H-benzimidazole-4-carboxamide]
< 100 nM	CN(Cc1nc2c(C(=O)NCCCn3ccnc3)cccc2[nH]1)C1CCCc2cccnc21 (stereo not drawn) [Example 79, N-[3-(1H-Imidazol-1-yl)propyl]-2-{[methyl(5,6,7,8-tetrahydro-8-quinolinyl)amino]methyl}-1H-benzimidazole-4-carboxamide]
< 100 nM	CCCN(Cc1nc2cccc(N3CCN(C)CC3)c2[nH]1)[C@H]1CCCc2cccnc21 [Example 137, (8S)—N-{[4-(4-methyl-1-piperazinyl)-1H-benzimidazol-2-yl]methyl}-N-propyl-5,6,7,8-tetrahydro-8-quinolinamine]
< 100 nM	CN1CCN(c2cccc3nc(CN(Cc4ccccc4)[C@H]4CCCc5cccnc54)[nH]c23)CC1 [Example 150, (8S)—N-{[4-(4-methyl-1-piperazinyl)-1H-benzimidazol-2-yl]methyl}-N-(phenylmethyl)-5,6,7,8-tetrahydro-8-quinolinamine]
< 100 nM	CN(Cc1nc2c(C(=O)N3CCCNCC3)cccc2[nH]1)C1CCCc2cccnc21 (stereo not drawn) [Example 93, N-{[4-(hexahydro-1H-1,4-diazepin-1-ylcarbonyl)-1H-benzimidazol-2-yl]methyl}-N-methyl-5,6,7,8-tetrahydro-8-quinolinamine]
< 100 nM	CN(Cc1nc2c(C(=O)NC3CCNC3)cccc2[nH]1)C1CCCc2cccnc21 (stereo not drawn) [Example 78, 2-{[Methyl(5,6,7,8-tetrahydro-8-quinolinyl)amino]methyl}-N-3-pyrrolidinyl-1H-benzimidazole-4-carboxamide]
